Each structure is given as a SMILES string. Structures can show the parent of a compound that is named as a salt. Where only a bound is given, the exact number is not on record here.

Broadly, the IC50 is the concentration that inhibits the measured activity by half. A high value points to weaker potency. Broadly, the Kd is the constant that tells how readily two partners part at equilibrium.

The target in experiment [1] is T1, full-length proMMP9(1-707) activation by catalytic MMP3 (Homo sapiens, UniProt P14780, R574P).
T1 construct: made in house; host or cells: proMMP9: HEK293 (secreted); MMP3: E. coli
The experiment in a line: proMMP9/MMP3 P126 Activation Assay. In kind it is biochemical. Here is the method: proMMP9/MMP3 P126 Activation Assay
The reaction volume was 50 μL. […] Reactivity of residual MMP3 towards P-126 substrate was minimal under these conditions.

Experiment [2] deals with T2, proMMP9(20-445;ΔFnII) (SEQ ID NO:6) (Homo sapiens, UniProt P14780, DEL216-390).
T2 construct: start methionine (N); made in house; host or cells: E. coli BL21(DE3) RIL
T2 sequence (P14780 with tags, fused parts or gaps DEL216-390): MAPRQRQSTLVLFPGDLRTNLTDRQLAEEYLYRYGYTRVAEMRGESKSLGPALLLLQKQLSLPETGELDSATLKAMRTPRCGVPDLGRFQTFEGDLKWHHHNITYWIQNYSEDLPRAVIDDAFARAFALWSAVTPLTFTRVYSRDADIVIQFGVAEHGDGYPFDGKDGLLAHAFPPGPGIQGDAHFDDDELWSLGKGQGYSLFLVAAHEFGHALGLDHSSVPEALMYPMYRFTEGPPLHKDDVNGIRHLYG
The experiment is described as follows: ThermoFluor binding assay with proMMP9(20-445;ΔFnII). Here is the method:
(§1) The ThermoFluor® (TF) assay is a 384-well plate-based binding assay that measures thermal stability of proteins (Biomol Screen 2001, 6, 429-40; Biochemistry 2005, 44, 5258-66). The experiments were carried out using instruments available from Johnson & Johnson Pharmaceutical Research & Development, LLC. TF dye used in all experiments was […] (1,8-ANS) (Invitrogen: A-47).
(§2) Compounds were arranged in a pre-dispensed plate (Greiner Bio-one: 781280), wherein compounds were serially diluted in 100% DMSO across 11 columns within a series. Columns 12 and 24 were used as DMSO reference and contained no compound. For multiple compound concentration-response experiments, the compound aliquots (50 nL) were robotically predispensed directly into black 384-well polypropylene PCR microplates (Abgene: TF-0384/k) using a Cartesian Hummingbird liquid handler (DigiLab, Holliston, Mass.). Following compound dispense, protein and dye solutions were added to achieve the final assay volume of 3 μL. The assay solutions were overlayed with 1 μL of silicone oil (Fluka, type DC 200: 85411) to prevent evaporation.
(§3) Assay plates were robotically loaded onto a thermostatically controlled PCR-type thermal block and then heated from 40 to 90° C. at a ramp-rate of 1° C./min for all experiments. Fluorescence was measured by continuous illumination with UV light (Hamamatsu LC6) supplied via fiber optics and filtered through a band-pass filter (380-400 nm; >60D cutoff). Fluorescence emission of the entire 384-well plate was detected by measuring light intensity using a CCD camera (Sensys, Roper Scientific) filtered to detect 500±25 nm, resulting in simultaneous and independent readings of all 384 wells. A single image with 20-sec exposure time was collected at each temperature, and the sum of the pixel intensity in a given area of the assay plate was recorded vs temperature and fit to standard equations to yield the Tm (J Biomol Screen 2001, 6, 429-40).
(§4) Thermodynamic parameters necessary for fitting compound binding for each proMMP were estimated by differential scanning calorimetry (DSC) and from ThermoFluor® data. The heat capacity of unfolding for each protein was estimated from the molecular weight and from ThermoFluor® dosing data.
ThermoFluor® with proMMP9(20-445; ΔFnII (SEQ ID NO:6)
The protein sample preparations included a desalting buffer exchange step via a PD-10 gravity column (GE Healthcare). The desalting buffer exchange was performed prior to diluting the protein to the final assay concentration of 2.8 μM proMMP9(20-445;ΔFnII) (SEQ ID NO:6). The concentration of proMMP9(20-445;ΔFnII) (SEQ ID NO:6) was determined spectrophotometrically based on a calculated extinction coefficient of ε280=39880 M^−1 cm^−1, a calculated molecular weight of 28.2 kDa, and calculated pI of 5.5. ThermoFluor® reference conditions were define as follows: 80 μg/mL (2.8 μM) proMMP9(20-445;ΔFnII) (SEQ ID NO:6), 50 μM 1,8-ANS, pH 7.0 Buffer (50 mM HEPES pH 7.0, 100 mM NaCl, 0.001% Tween-20, 2.5 mM MgCl2, 300 μM CaCl2). The thermodynamic parameters for proMMP9(20-445;ΔFnII) (SEQ ID NO:6) are as follows: Tm (° C.)=72 (+/−0.1), ΔUH(Tm) (cal mol^−1)=160000(+/−5000), ΔUSTm (cal mol^−1 K^−1)=434, ΔUCp (cal mol^−1 K^−1)=2400.
In general terms: In DSF a fluorescence change marks the thermal transition of the protein.

Experiment [3] concerns the target T3, proMMP9(67-444;ΔFnII) (SEQ ID NO:5) (Homo sapiens, UniProt P14780, DEL216-390).
T3 construct: start methionine (N); made in house; host or cells: E. coli BL21(DE3) RIL
T3 sequence (P14780 with tags, fused parts or gaps DEL216-390): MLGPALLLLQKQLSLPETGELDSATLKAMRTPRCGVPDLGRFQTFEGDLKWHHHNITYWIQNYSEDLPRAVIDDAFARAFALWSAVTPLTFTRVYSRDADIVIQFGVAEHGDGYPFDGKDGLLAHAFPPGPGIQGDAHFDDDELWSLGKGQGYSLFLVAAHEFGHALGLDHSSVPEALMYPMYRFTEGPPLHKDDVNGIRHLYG
The experiment is described as follows: ThermoFluor binding assay with proMMP9(67-444;ΔFnII). The protocol:
as §1, §2, §3, §4
ThermoFluor® with proMMP9(67-444;ΔFnM (SEQ ID NO:5)
The protein sample preparations had to include a desalting buffer exchange step via a PD-10 gravity column (GE Healthcare). The desalting buffer exchange was performed prior to diluting the protein to the final assay concentration of 3.5 μM proMMP9(67-444;ΔFnII) (SEQ ID NO:5). The concentration of proMMP9(67-444;ΔFnII) (SEQ ID NO:5) was determined spectrophotometrically based on a calculated extinction coefficient of ε280=33900 M^−1 cm^−1, a calculated molecular weight of 22.6 kDa, and calculated pI of 5.20. ThermoFluor® reference conditions were defined as follows: 80 μg/mL (3.5 μM) proMMP9(67-444;ΔFnII) (SEQ ID NO:5), 50 μM 1,8-ANS, pH 7.0 Buffer (50 mM HEPES pH 7.0, 100 mM NaCl, 0.001% Tween-20, 2.5 mM MgCl2, 300 μM CaCl2). The thermodynamic parameters for proMMP9(67-444;ΔFnII) (SEQ ID NO:5) are as follows: Tm (° C.)=63 (+/−0.1), ΔUH(Tm)(cal mol^−1)=105000(+/−5000), ΔUS(Tm) (cal mol^−1 K^−1)=450, ΔUCp (cal mol^−1 K^−1)=2000.

T1 sequence (P14780 20-707 R574P): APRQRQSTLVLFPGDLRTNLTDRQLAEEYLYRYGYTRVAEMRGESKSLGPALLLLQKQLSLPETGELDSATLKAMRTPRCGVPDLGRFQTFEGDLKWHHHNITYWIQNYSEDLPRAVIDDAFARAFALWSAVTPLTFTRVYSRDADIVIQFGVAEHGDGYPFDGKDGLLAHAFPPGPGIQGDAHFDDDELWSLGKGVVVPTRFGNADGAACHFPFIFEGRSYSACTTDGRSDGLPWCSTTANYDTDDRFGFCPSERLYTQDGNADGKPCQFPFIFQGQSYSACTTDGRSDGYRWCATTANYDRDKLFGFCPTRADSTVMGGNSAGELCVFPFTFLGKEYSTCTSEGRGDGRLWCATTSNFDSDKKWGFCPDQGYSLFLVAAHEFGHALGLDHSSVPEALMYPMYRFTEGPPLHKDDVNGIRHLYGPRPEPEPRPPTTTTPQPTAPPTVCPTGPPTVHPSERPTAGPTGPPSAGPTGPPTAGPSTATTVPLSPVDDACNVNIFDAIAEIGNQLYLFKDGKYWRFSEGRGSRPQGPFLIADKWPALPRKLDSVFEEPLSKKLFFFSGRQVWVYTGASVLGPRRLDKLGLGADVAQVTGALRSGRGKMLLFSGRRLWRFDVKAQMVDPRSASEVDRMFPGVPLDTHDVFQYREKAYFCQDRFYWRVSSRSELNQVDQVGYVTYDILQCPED

For `CC(C)Oc1ccc(C#N)cc1Nc1nc2c(ccc3c2ncn3C)s1` [Example 160, 4-isopropoxy-3-((6-methyl-6H-imidazo[4′,5′:5,6]benzo[1,2-d]thiazol-2-yl)amino)benzonitrile.HCl], the 50% inhibitory concentration (IC50) in experiment [1] turned out to be 0.16 µM. Further, the Kd is 0.29 µM in experiment [2] and 0.075 µM in experiment [3].

Take `CC(C)Oc1ccc(S(C)(=O)=O)cc1Nc1nc2c(ccc3ncn(CC(F)(F)F)c32)s1` [Example 146, (2-Isopropoxy-5-methanesulfonyl-phenyl)-[8-(2,2,2-trifluoro-ethyl)-8H-imidazo[4′,5′:3,4]-benzo[2,1-d]thiazol-2-yl]-amine.TFA]: the IC50 in experiment [1] amounted to 0.8 µM. The figures for the dissociation constant (Kd) in experiment [2] and in experiment [3] were 3.1 µM and 0.64 µM, respectively.

With `COc1ccc([N+](=O)[O-])cc1Nc1nc2c(ccc3c2ncn3C)s1` [Example 76, (2-Methoxy-5-nitro-phenyl)-(6-methyl-6H-imidazo[4′,5′:3,4]benzo[2,1-d]thiazol-2-yl)-amine.HCl], 0.1 µM corresponded to half-maximal inhibition in experiment [1] (IC50). For the same compound, the equilibrium dissociation constant (Kd) in experiment [2] amounted to 0.53 µM; in experiment [3], 0.38 µM.

`CCn1cc2c(ccc3sc(Nc4cc(S(C)(=O)=O)ccc4OC)nc32)n1` [Example 107, (7-Ethyl-7H-3-thia-1,6,7-triaza-as-indacen-2-yl)-(5-methanesulfonyl-2-methoxy-phenyl)-amine.TFA] displayed an IC50 in experiment [1] of 0.58 µM. Further, the dissociation constant Kd in experiment [2] came to 6.8 µM; in experiment [3], 1.5 µM.

In experiment [1], `COc1ccc(P(=O)(O)O)cc1Nc1nc2c(ccc3c2ncn3C)s1` [Example 68, [4-Methoxy-3-(6-methyl-6H-imidazo[4′,5′:3,4]benzo[2,1-d]thiazol-2-ylamino)-phenyl]-phosphonic acid.HCl] gave an IC50 of 7.5 µM. Moreover, the dissociation constant (Kd) was 7.5 µM in experiment [2] and 12 µM in experiment [3].

With `CCn1c(C)nc2ccc3sc(Nc4cc(F)ccc4OC(C)C)nc3c21` [Example 139, (8-Ethyl-7-methyl-8H-imidazo[4′,5′:3,4]benzo[2,1-d]thiazol-2-yl)-(5-fluoro-2-isopropoxy-phenyl)-amine.TFA], it took 0.33 µM to reach half-maximal inhibition in experiment [1] (IC50). The figures for the Kd in experiment [2] and in experiment [3] were > 95 µM and 0.96 µM, respectively.

With `CCn1c(C)nc2ccc3sc(Nc4cnccc4OC(C)C)nc3c21` [Example 159, 8-Ethyl-N-(4-isopropoxypyridin-3-yl)-7-methyl-8H-imidazo[4′,5′:5,6]benzo[1,2-d]thiazol-2-amine.HCl], the midpoint of inhibition in experiment [1], the IC50, lay at 0.066 µM. The Kd is 0.38 µM in experiment [2] and 0.043 µM in experiment [3].

Turning to `Cc1nc2ccc3sc(Nc4cc(F)ccc4OC(C)C)nc3c2n1CC(F)(F)F` [Example 141, (5-Fluoro-2-isopropoxy-phenyl)-[7-methyl-8-(2,2,2-trifluoro-ethyl)-8H-imidazo[4′,5′:3,4]benzo[2,1-d]thiazol-2-yl]-amine.TFA], the 50% inhibitory concentration (IC50) in experiment [1] was 1.3 µM. The values for the dissociation constant (Kd) in experiment [2] and in experiment [3] were 33 µM and 7.5 µM, respectively.

Compound `COc1ccc(C#N)cc1Nc1nc2c(ccc3c2ccn3C)s1` [Example 85, 4-Methoxy-3-(6-methyl-6H-thiazolo[4,5-e]indol-2-ylamino)-benzonitrile.HCl] yielded an IC50 in experiment [1] of 0.15 µM. The Kd in experiment [2] is 0.58 µM; in experiment [3] it was 0.15 µM.

In the case of `COc1ccccc1Nc1nc2c(ccc3nc(C)n(C)c32)s1` [Example 124, (7,8-Dimethyl-8H-imidazo[4′,5′:3,4]benzo[2,1-d]thiazol-2-yl)-(2-methoxy-phenyl)-amine.TFA], in experiment [1], the half-maximal inhibitory concentration (IC50) worked out at 0.47 µM. Moreover, the Kd in experiment [2] came out at 5.7 µM; in experiment [3] it was 2.8 µM.

In the case of `CNS(=O)(=O)c1ccc(OC)c(Nc2nc3c(ccc4c3ncn4C)s2)c1` [Example 82, 4-Methoxy-N-methyl-3-(6-methyl-6H-imidazo[4′,5′:3,4]-benzo[2,1-d]thiazol-2-ylamino)-benzenesulfonamide.HCl], in experiment [1], half-maximal inhibition (IC50) required 0.33 µM. Further, the Kd in experiment [2] amounted to 1.5 µM; in experiment [3], 1.1 µM.
